Reference: US20220332764A1, “T CELL EPITOPES OF HCMV AND USES OF THEREOF” (EBERHARD KARLS UNIVERSITÄT TÜBINGEN, priority 2019, published 2022)
Values joined by “and” are separate entries in the source; they are usually repeats but may differ in a detail not shown here. Equal values may be shown once. Read-outs that look alike come from different tables or passages of the source.

How the values were obtained:
[1] = system: CD8+ T cells of HLA-matched healthy donors; settings: for Tetramer-staining: after 12 day amplification
[2] = system: CD8+ / CD4+ T cells of donor PBMCs; assay: Intracellular cytokine staining (ICS; IFNγ, TNFα, CD107a); format: cell-based, human; settings: for Intracellular staining: responding T-cell subset; for Intracellular cytokine staining: responding T-cell subset after peptide stimulation
From the text: PHA was used as positive control. […] (Cytofix/Cytoperm, BD Biosciences).

[3] = system: PBMCs of healthy HCMV-seropositive donors; assay: IFNγ ELISpot after 12 day stimulation (memory T-cell response); format: cell-based, human; settings: for % Positive donors (after 12 days of stimulation): IFNγ ELISpot, HLA-matched seropositive donors; for ELISpot response rate (12 d stim.): 12-day amplification with IL-2 in vitro; for Positive donors as tested: positive / tested HLA-matched seropositive donors, positive: >10 spots/well and at least 3-fold negative control
From the text: (§1) PHA was used as positive control.

[4] = system: PBMCs of healthy HCMV-seropositive donors; assay: ex vivo IFNγ ELISpot without prestimulation; format: cell-based, human; settings: for % Positive donors (ex vivo): IFNγ ELISpot ex vivo, donors previously tested positive; for ELISpot response rate (ex vivo): donors positively tested in ELISpots with 12d stimulation
From the text: as §1

| Sequence | Tetramer-staining [1] | Intracellular cytokine staining [2] | % Positive donors (after 12 days of stimulation) [3] | Positive donors as tested [3] | % Positive donors (ex vivo) [4] | other results |
| --- | --- | --- | --- | --- | --- | --- |
| ALWDVALLEV (listed as Human cytomegalovirus) [SEQ ID NO: 2] | Positive | CD8 | 71.4% | 10/14 | 25.0% | Tetramer staining ([1]; Tested HLA A*02:01): positive; Intracellular staining ([2]; Tested HLA A*02:01): CD8; ELISpot response rate (12 d stim.) ([3]; Tested HLA A*02:01): 71.4; ELISpot response rate (ex vivo) ([4]; Tested HLA A*02:01): 25.0 |
| DARSRIHNV (listed as Human cytomegalovirus) [SEQ ID NO: 89] | Positive | CD8 | 53.3% | 8/15 |  | Tetramer staining ([1]; Tested HLA B*51:01): positive; Intracellular staining ([2]; Tested HLA B*51:01): CD8; ELISpot response rate (12 d stim.) ([3]; Tested HLA B*51:01): 53.3; ELISpot response rate (ex vivo) ([4]; Tested HLA B*51:01): 20.0 |
| DEQVSKRSW (listed as Human cytomegalovirus) [SEQ ID NO: 42] | Positive | CD8 | 45.8% | 11/24 | 12.5% |  |
| FLDENFKQL (listed as Human cytomegalovirus) [SEQ ID NO: 5] | Negative | CD4 | 47.6% | 10/21 | 37.5% |  |
| GLLAHIPALGV (listed as Human cytomegalovirus) [SEQ ID NO: 8] |  |  | 27.3% | 6/22 | 0.0% |  |
| KLGYRPHAK (listed as Human cytomegalovirus) [SEQ ID NO: 71] | Positive | CD8 | 37.9% | 11/29 |  |  |
| RLQPNVPLV (listed as Human cytomegalovirus) [SEQ ID NO: 7] |  |  | 33.3% | 6/18 | 0.0% |  |
| RPFPSTHQL (listed as Human cytomegalovirus) [SEQ ID NO: 31] |  |  | 30.8% | 4/13 | 0.0% |  |
| RSALGPFVGK (listed as Human cytomegalovirus) [SEQ ID NO: 69] | Positive | CD8 | 40.0% | 6/15 |  |  |
| SLDRFIVQY (listed as Human cytomegalovirus) [SEQ ID NO: 57] |  | CD4 | 35.7% | 5/14 |  |  |
| SLFYRAVAL (listed as Human cytomegalovirus) [SEQ ID NO: 98] |  |  |  | 5/13 and 4/22 | 12.5% | Binding to more than one HLA-I allotype ([3]; stimulated T cells of different donors harboring either of two well predicted alleles): potentially able to bind to more than one HLA-I allotype |
| VPAAVYTTV (listed as Human cytomegalovirus) [SEQ ID NO: 93] |  |  | 33.3% | 5/15 |  |  |
| VTDPEHLMM (listed as Human cytomegalovirus) [SEQ ID NO: 64] |  |  | 14.3% | 2/14 |  |  |
| VTDYGNVAFKY (listed as Human cytomegalovirus) [SEQ ID NO: 61] |  |  | 18.8% | 3/16 |  |  |
| YSDRRDHVWSY (listed as Human cytomegalovirus) [SEQ ID NO: 66] |  |  | 6.3% | 1/16 |  |  |
| YTSRGALYLY (listed as Human cytomegalovirus) [SEQ ID NO: 58] |  |  | 21.4% | 3/14 |  |  |
